Our source for the IC50 and inhibition values is patent US10988466B2, “Heterocyclic derivatives useful as SHP2 inhibitors” (Jacobio Pharmaceuticals Co., Ltd., priority 2017, dated 2021).

Structures are written as SMILES. Like-named read-outs stand apart in the source and are kept apart here.

The subject of one test is MV-4-11. Put plainly: Cell proliferation assay (MTS/PMS). In kind it is cell-based. The conditions noted are these: Homo sapiens, MV4-11.
In test [1] the target is T1, SHP2 (Homo sapiens, UniProt Q06124).
T1 sequence (Q06124 1-593): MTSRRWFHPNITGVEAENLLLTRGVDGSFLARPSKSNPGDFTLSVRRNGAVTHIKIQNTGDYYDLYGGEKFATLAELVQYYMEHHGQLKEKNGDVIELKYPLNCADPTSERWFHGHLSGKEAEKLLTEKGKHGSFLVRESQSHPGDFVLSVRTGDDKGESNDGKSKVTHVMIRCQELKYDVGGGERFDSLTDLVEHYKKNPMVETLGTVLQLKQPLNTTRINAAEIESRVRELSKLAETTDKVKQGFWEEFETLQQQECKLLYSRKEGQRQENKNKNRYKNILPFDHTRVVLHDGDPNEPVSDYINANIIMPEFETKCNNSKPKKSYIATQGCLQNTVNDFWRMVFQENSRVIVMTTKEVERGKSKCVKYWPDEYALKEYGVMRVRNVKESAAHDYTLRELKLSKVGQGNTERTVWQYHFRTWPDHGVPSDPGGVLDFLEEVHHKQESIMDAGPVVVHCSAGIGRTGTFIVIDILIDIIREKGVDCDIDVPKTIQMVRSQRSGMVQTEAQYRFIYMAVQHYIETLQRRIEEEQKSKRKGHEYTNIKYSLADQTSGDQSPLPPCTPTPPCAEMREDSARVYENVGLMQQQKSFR
Kind of test: biochemical. Particulars: read-out: SHP2 inhibition (%)@0.1 μM.

The target in test [2] is T1, SHP2. Kind of test: Phosphatase assays (IC50), DiFMUP substrate.
The mark [3] stands for this setting: MV-4-11 cell proliferation, MTS/PMS readout at day 8, compounds added 24 hours after plating, read-out: IC50.

By IC50 is commonly meant the concentration that inhibits the measured activity by half. The term inhibition denotes how much of the control response was suppressed. With `Nc1nccc(Sc2cnc(N3CCC4(CC3)Cc3nc(Cl)sc3[C@H]4N)cn2)c1Cl` [Example 68, (S)-1′-(5-((2-amino-3-chloropyridin-4-yl)thio)pyrazin-2-yl)-2-chloro-4,6-dihydrospiro[cyclopenta [d]thiazole-5,4′-piperidin]-amine], the IC50 in the test on MV-4-11 (setting [3]) turned out to be 4.9 nM. Further, the inhibition at 0.1 µM at SHP2 [1] came to 82%.

As for `Nc1nc(N2CCC3(CC2)Cc2nc4ccccc4cc2[C@H]3N)cnc1Sc1ccnc(N)c1Cl` [Example 64, (S)-1′-(6-amino-5-((2-amino-3-chloropyridin-4-yl)thio)pyrazin-2-yl)-1,3-dihydrospiro[cyclopenta [b]quinoline-2, 4′-piperidin]-1-amine], in the test on MV-4-11 (setting [3]), the IC50 turned out to be 8.1 nM. The inhibition at 0.1 µM at SHP2 [1] turned out to be 66%. As for `Nc1nc(N2CCC3(CC2)Cc2ncccc2C3N)cnc1Sc1ccnc(N)c1Cl` (stereo not drawn) [Example 121, 1′-(6-amino-5-((2-amino-3-chloropyridin-4-yl)thio)pyrazin-2-yl)-5,7-dihydrospiro [cyclopenta[b]pyridine-6,4′-piperidin]-5-amine], 56 nM corresponded to half-maximal inhibition at SHP2 [2] (IC50). In the case of `Nc1nccc(Sc2cnc(N3CCC4(CC3)Cc3ncccc3[C@H]4N)cn2)c1F` [Example 92, (S)-1′-(5-((2-amino-3-fluoropyridin-4-yl)thio)pyrazin-2-yl)-5,7-dihydrospiro[cyclopenta [b]pyridine-6,4′-piperidin]-5-amine], the IC50 in the test with MV-4-11 (setting [3]) was found to be 9 nM. Also, the inhibition at 0.1 µM on SHP2 [1] stood at 92%.

`Nc1nc(N2CCC3(CC2)Oc2ccccc2[C@H]3N)cnc1Sc1ccnc(N)c1Cl` [Example 45, (R)-1′-(6-amino-5-((2-amino-3-chloropyridin-4-yl)thio)pyrazin-2-yl)-3H-spiro[benzofuran-2,4′-piperidin]-3-amine] returned an IC50 in the test on MV-4-11 of 2.5 nM. Besides, at SHP2 [1], the inhibition at 0.1 µM came out at 68%. Turning to `Nc1nccc(Sc2cnc(N3CCC4(CC3)Cc3ncsc3[C@H]4N)cn2)c1Cl` [Example 156, (S)-1′-(5-((2-amino-3-chloropyridin-4-yl)thio)pyrazin-2-yl)-4,6-dihydrospiro[cyclopenta[d]thiazole-5,4′-piperidin]-6-amine], in the test with MV-4-11 (setting [3]), the IC50 is 46.1 nM. Moreover, on SHP2 [1], the inhibition at 0.1 µM amounted to 80%. As for `Nc1nc(N2CCC3(CC2)Cc2scnc2[C@H]3N)cnc1Sc1ccncc1F` [Example 88, (S)-1′-(6-amino-5-((3-fluoropyridin-4-yl)thio)pyrazin-2-yl)-4,6-dihydrospiro[cyclopenta [d]thiazole-5,4′-piperidin]-4-amine], on SHP2 [2], the IC50 is 36 nM.

Regarding `Nc1cc(Sc2cnc(N3CCC4(CC3)Cc3ncccc3[C@H]4N)cn2)c(Cl)cn1` [Example 112, (S)-1′-(5-((2-amino-5-chloro-pyridin-4-yl)thio)pyrazin-2-yl)-5,7-dihydrospiro [cyclopenta [b]pyridine-6,4′-piperidin]-5-amine], the IC50 in the test with MV-4-11 (setting [3]) was 30 nM. Also, at SHP2 [1], the inhibition at 0.1 µM amounted to 87%. At SHP2 [2], `Nc1nc(N2CCC3(CC2)Cc2ncsc2[C@H]3N)cnc1Sc1ccnc(N)c1Cl` [Example 155, (S)-1′-(6-amino-5-((2-amino-3-chloropyridin-4-yl)thio)pyrazin-2-yl)-4,6-dihydrospiro[cyclopenta[d]thiazole-5,4′-piperidin]-6-amine] showed an IC50 of 3 nM.

`Nc1nc(N2CCC3(CC2)Cc2ncccc2[C@H]3N)cnc1Sc1ccncc1F` [Example 87, (S)-1′-(6-amino-5-((3-fluoropyridin-4-yl)thio)pyrazin-2-yl)-5,7-dihydrospiro[cyclopenta [b]pyridine-6,4′-piperidin]-5-amine] had an IC50 at SHP2 [2] of 9 nM. For `Nc1nccc(Sc2cnc(N3CCC4(CC3)Nc3ccccc3[C@H]4N)cn2)c1Cl` [Example 71, (R)-1′-(5-((2-amino-3-chloropyridin-4-yl)thio)pyrazin-2-yl)spiro[indoline-2, 4′-piperidin]-3-amine], the IC50 in the test on MV-4-11 (setting [3]) is 13 nM. Besides, at SHP2 [1], the inhibition at 0.1 µM turned out to be 86%.

On SHP2 [2], `Nc1nccc(Sc2cnc(N3CCC4(CC3)Cc3scnc3[C@H]4N)cn2)c1Cl` [Example 152, (S)-1′-(5-((2-amino-3-chloropyridin-4-yl)thio)pyrazin-2-yl)-4,6-dihydrospiro[cyclopenta[d]thiazole-5,4′-piperidin]-4-amine] displayed an IC50 of 3 nM. Same read-out and setting: in the case of `N[C@@H]1c2cccnc2CC12CCN(c1cnc(Sc3ccncc3)cn1)CC2` [Example 86, (S)-1′-(5-(pyridin-4-ylthio)pyrazin-2-yl)-5,7-dihydrospiro [cyclopenta [b]pyridine-6,4′-piperidin]-5-amine] it was 14 nM.

As for `COc1nccc(Sc2ncc(N3CCC4(CC3)Cc3ncccc3[C@H]4N)nc2N)c1Cl` [Example 100, (S)-1′-(6-amino-5-((3-chloro-2-methoxypyridin-4-yl)thio)pyrazin-2-yl)-5,7-dihydro-spiro[cyclopenta [b]pyridine-6,4′-piperidin]-5-amine], the IC50 in the test on MV-4-11 (setting [3]) was 30 nM. Further, on SHP2 [1], the inhibition at 0.1 µM turned out to be 88%.

With `COc1nccc(Sc2cnc(N3CCC4(CC3)Cc3ncccc3[C@H]4N)cn2)c1Cl` [Example 99, (S)-1′-(5-((3-chloro-2-methoxy-pyridin-4-yl)thio)pyrazin-2-yl)-5,7-dihydrospiro [cyclopenta[b]pyridine-6,4′-piperidin]-5-amine], in the test with MV-4-11 (setting [3]), the IC50 was found to be 18 nM. The inhibition at 0.1 µM on SHP2 [1] was determined as 89%.

For the molecule `Nc1nc(N2CCC3(CC2)Cc2ncccc2[C@H]3N)cnc1Sc1cccc(Cl)c1Cl` [Example 84, (S)-1′-(6-amino-5-((2,3-dichloro-phenyl)thio)pyrazin-2-yl)-5,7-dihydrospiro[cyclopenta [b]pyridine-6, 4′-piperidin]-5-amine], on SHP2 [2], the 50% inhibitory concentration (IC50) is 3 nM. Consider `Nc1nc(N2CCC3(CC2)Cc2nc(Cl)sc2[C@H]3N)cnc1Sc1ccnc(N)c1Cl` [Example 69, (S)-1′-(6-amino-5-((2-amino-3-chloropyridin-4-yl)thio)pyrazin-2-yl)-2-chloro-4,6-dihydro-spiro[cyclopenta[d]thiazole-5,4′-piperidin]-6-amine], for which the IC50 with MV-4-11 (setting [3]) stood at 4 nM. Moreover, on SHP2 [1], the inhibition at 0.1 µM came out at 89%.

Regarding `Nc1nccc(Sc2cnc(N3CCC4(CC3)Oc3ccccc3[C@H]4N)cn2)c1Cl` [Example 56, (R)-1′-(5-((2-amino-3-chloropyridin-4-yl)thio)pyrazin-2-yl)-3H-spiro[benzofuran-2,4′-piperidin]-3-amine], the IC50 in the test with MV-4-11 (setting [3]) turned out to be 10.4 nM. For the same molecule, at SHP2 [1], the inhibition at 0.1 µM came out at 71%. The matching figures for `Nc1nc(N2CCC3(CC2)Cc2ncccc2[C@H]3N)cnc1Sc1ccnc2ccccc12` [Example 83, (S)-1′-(6-amino-5-(quinolin-4-yl-thio)pyrazin-2-yl)-5,7-dihydrospiro [cyclopenta[b]pyridine-6,4′-piperidin]-5-amine]: 16 nM and 91%. The matching figures for `Nc1nc(N2CCC3(CC2)Cc2ncccc2[C@H]3N)cnc1Sc1ccnc(N)c1F` [Example 91, (S)-1′-(6-amino-5-((2-amino-3-fluoropyridin-4-yl)thio)pyrazin-2-yl)-5,7-dihydrospiro [cyclopenta [b]pyridine-6,4′-piperidin]-5-amine]: 12 nM and 88%.

For `CN(C)c1nccc(Sc2cnc(N3CCC4(CC3)Cc3ncccc3[C@H]4N)cn2)c1Cl` [Example 85, (S)-1′-(5-((3-chloro-2-(dimethyl-amino)pyridin-4-yl)thio)pyrazin-2-yl)-5,7-dihydrospiro [cyclopenta [b]pyridine-6,4′-piperidin]-5-amine], half-maximal inhibition against SHP2 [2] (IC50) required 6 nM.

On to `N[C@@H]1c2cccnc2CC12CCN(c1cnc(Sc3ccnc(Cl)c3Cl)cn1)CC2` [Example 104, (S)-1′-(5-((2,3-dichloropyridin-4-yl)thio)pyrazin-2-yl)-5,7-dihydrospiro [cyclopenta [b]pyridine-6,4′-piperidin]-5-amine], for which the IC50 with MV-4-11 (setting [3]) was found to be 9 nM. The inhibition at 0.1 µM at SHP2 [1] was found to be 87%. The matching figures for `Nc1nccc(Sc2cnc(N3CCC4(CC3)Cc3sc(Cl)nc3[C@H]4N)cn2)c1Cl` [Example 95, (S)-1′-(5-((2-amino-3-chloropyridin-4-yl)thio)pyrazin-2-yl)-2-chloro-4,6-dihydrospiro [cyclopenta[d]thiazole-5,4′-piperidin]-4-amine]: 10 nM and 73%. The matching figures for `COc1cccc2c1CC1(CCN(c3cnc(Sc4ccnc(N)c4Cl)c(N)n3)CC1)[C@@H]2N` [Example 14, (S)-1′-(6-amino-5-((2-amino-3-chloropyridin-4-yl)thio)pyrazin-2-yl)-4-methoxy-1,3-dihydrospiro[2,4′-piperidin]-1-amine]: 6 nM and 82%.

`Nc1nc(N2CCC3(CC2)Cc2ccc(O)cc2[C@H]3N)cnc1Sc1ccnc(N)c1Cl` [Example 137, (S)-1-amino-1′-(6-amino-5-((2-amino-3-chloropyridin-4-yl)thio)pyrazin-2-yl)-1,3-dihydrospiro[indene-2,4′-piperidin]-6-ol]: the IC50 in the test on MV-4-11 (setting [3]) came out at 3.3 nM. Also, the inhibition at 0.1 µM at SHP2 [1] was 89%.
